# From publication PMC9769694, “Discovery of Two Inhibitors of the Type IV Pilus Assembly ATPase PilB as Potential Antivirulence Compounds” (Microbiology Spectrum, 2022)
# Key:
# [1] = tested on: A. nosocomialis; experiment: Growth in liquid culture; type: cell-based, Acinetobacter nosocomialis; settings: up to 512 μM (highest tested), data not shown
# Source text: (§1) These include many bacteria with alarming prevalence for causing antibiotic-resistant infection ([12]). […] This is important because, for the development of antivirulence chemotherapies, the small molecules should not have an inhibitory effect on bacterial growth. Otherwise, they would select for resistance, just like antibiotics. From a chemical structure perspective, levodopa is 3,4-dihydroxyphenylalanine (Fig. 2), or phenylalanine with two hydroxyl groups. […] These preliminary studies of structure and activity relationships are consistent with benserazide and levodopa being specific inhibitors of PilB. As mentioned earlier, work with trifluoperazine ([25]) and P4MP4 ([26], [27]) has provided the proof of principle for antivirulence therapies with anti-T4P compounds. It is also encouraging that a compound targeting the adhesin function of the type 1 pilus of the uropathogenic E. coli (UPEC) ([47]) has moved to the clinical trial phase in the drug development pipeline ([48]).
# [2] = tested on: M. xanthus motility; experiment: Colony expansion of S-motile strains on hard agar; type: cell-based, Myxococcus xanthus; settings: strains YZ1674 and YZ2232, P < 0.05
# Source text: (§2) On the other hand, YZ1674 and YZ2232, which have both A and S motility, were affected in their expansion on hard agar by both compounds (Fig. S4 and S5) at concentrations similar to those on soft agar. Indeed, the results with hard agar plates mirror those with soft agar. […] Because neither benserazide nor levodopa had any effect on A motility (Fig. S3C and D), the net differences on hard agar at different concentrations of the inhibitor (Fig. S4) can be viewed as confirmation of its effect on S motility (Fig. 5). […] It is plausible that this inhibition is attributable to their effects on the PilB ATPase in vivo.
# (§3) M. xanthus was grown and maintained at 32°C in Casitone-yeast extract (CYE) medium ([49]). Motility assays were conducted with strains DK10416 (ΔpilB) ([40]), YZ1674 (ΔpilB att::MxpilB) ([50]), and YZ2232 (ΔpilB att::MC3pilB) ([30], [51]) as previously described ([28]). One modification was that 10% India ink was included in the cell suspension to mark the initial spot on agar plates. All experiments were conducted in quintuplicates and the diameter of the initial spot, as marked by India ink, was subtracted for data analysis.
# [3] = tested on: A. nosocomialis twitching motility; experiment: Twitching motility, crystal violet stained twitching area; type: cell-based, Acinetobacter nosocomialis; settings: WT M2 strain; for effect on twitching of the WT strain at 128 μM: compared with ΔpilA; for concentration significantly reducing twitching: P < 0.05
# Source text: The inhibitors may thus interact with conserved features of the PilB ATPase family. A. nosocomialis PilB ([19]), whose N terminus is not similar to the MshEN domain (data not shown), shares ~53% identity and ~74% homology with MxPilB and MC3PilB in the ATPase domain (Fig. S1). We analyzed whether benserazide and levodopa could impact the T4P-powered twitching motility ([19], [44]) of A. nosocomialis (Fig. 7), an opportunistic pathogen in the Acinetobacter calcoaceticus-Acinetobacter baumannii (ACB) complex ([45]). As shown in Fig. 7A and B and Fig. S7, benserazide and levodopa impede the twitching motility of WT A. nosocomialis in a concentration-dependent manner.
# FIG 7 Benserazide and levodopa inhibit Acinetobacter nosocomialis twitching motility and biofilm formation. (A and B) Twitching motility is correlated with the twitching area (cm^2) of the A. nosocomialis wild-type (WT) strain in the presence of (A) benserazide or (B) levodopa, with the control (no inhibitor) normalized to 1. Data are from 3 independent experiments, each performed in triplicates and represented by dots of the same color. (C and D) Biofilms formed by A. nosocomialis with (C) benserazide or (D) levodopa were analyzed by a microplate assay with crystal violet (CV) staining. Results from three independent experiments, each performed in quadruplicates and represented by dots of the same color, are shown. Horizontal lines indicate overall averages, and asterisks (*) signify that values at the indicated concentration are statistically different from those of the control (P < 0.05).
# The A. nosocomialis wild-type M2 strain and an isogenic pilA deletion (ΔpilA) mutant ([19], [46]) were used in this study. They were grown and maintained using MacConkey medium at 37°C. The twitching motility of the M2 strain of A. nosocomialis was analyzed with 1% crystal violet (CV) for staining, and twitching areas were used as measures of motility as previously described ([46]). These motility assays were conducted in triplicates and the stained area of the ΔpilA mutant was subtracted from that of the WT for data analysis. A. nosocomialis biofilm formation was analyzed using microplates and CV staining as previously described ([53], [54]). The biofilm assays were conducted in quadruplicate in MacConkey medium with tissue culture-treated microtiter plates (Falcon). CV absorbance (Acv) was measured at 590 nm using Infinite M200 PRO in clear polystyrene 96-well microplates (ExtraGene). Absorbance for each well was read 16 times using Multiple Reads with the average as the final Acv value. Readings from control wells without bacteria were subtracted for normalization. Statistical differences were determined using a Student’s t test.
# [4] = tested on: M. xanthus adventurous (A) motility; experiment: Expansion of ΔpilB strain DK10416 (A motility only) on hard agar; type: cell-based, Myxococcus xanthus; settings: up to 128 μM
# Source text: as §2, §3
# [5] = tested on: Escherichia coli; experiment: Growth in liquid culture; type: cell-based; settings: up to 512 μM (highest tested), data not shown
# Source text: as §1
Structure (SMILES),effect on growth in liquid culture [1],concentration giving statistically significant reduction of expansion on hard agar [2] [µM],effect on twitching of the WT strain at 128 μM [3],concentration significantly reducing twitching [3] [µM],effect on expansion of DK10416 (A motility) [4],effect on growth in liquid culture [5]
NC(CO)C(=O)NNCc1ccc(O)c(O)c1O (stereo not drawn) [benserazide],neither benserazide nor levodopa had any discernible effect on the growth,≥ 8,eliminated twitching,≥ 32,neither benserazide nor levodopa influenced the expansion of DK10416,neither benserazide nor levodopa had any discernible effect on the growth
"N[C@@H](Cc1ccc(O)c(O)c1)C(=O)O [levodopa, 3,4-dihydroxyphenylalanine]",neither benserazide nor levodopa had any discernible effect on the growth,≥ 32,eliminated twitching,≥ 32,neither benserazide nor levodopa influenced the expansion of DK10416,neither benserazide nor levodopa had any discernible effect on the growth
